Experimental data reported in US12441732B2, “Potassium salt crystal form B of phosphodiesterase type 5 inhibitor, and preparation method and use therefor” (Guangzhou Huazhen Pharmaceutical Co., Ltd, priority 2019, dated 2025).

Key:
[1] = Dynamic vapor sorption (DVS) hygroscopicity test; format: physicochemical
Description: Dynamic vapor adsorption (DVS) experiments were performed at 25° C. on a DVS Intrinsic instrument from SMS (Surface Measurement Systems) to test hygroscopicity of the potassium salt anhydrous crystal form B prepared in Embodiment 1. The test sample was first dried at 0% relative humidity (RH) to remove the adsorbed solvent or water, and then the test was started with a target RH of 0-95%.

[2] = tested on: rats with isoproterenol-induced myocardial hypertrophy; test: Isoproterenol-induced myocardial hypertrophy in rats; format: in vivo, SD rats; conditions: Iso rats, 2 mg·kg^−1·d^−1 gavage, 7 days
Description: SD rats were randomly divided into 3 groups, 10 rats/group: a normal control group (CON); an isoproterenol-induced myocardial hypertrophy model group (Iso); an Iso+the potassium salt crystal form B of WYQ treatment group (hereafter referred to as a treatment group).
Isoproterenol was prepared into a 4 mg/ml medicinal solution with double-distilled water, which was ready to be used. The normal control group was injected with normal saline (5 mg/kg) subperitoneally, and the rest of the groups were injected with isoproterenol (5 mg/kg) subperitoneally once a day for 7 consecutive days.
Treatment group: the potassium salt crystal form B of WYQ was prepared into a 0.4 mg/ml medicinal solution with normal saline (ready to use) and administered by gavage at a dose of 2 mg·kg^−1·d^−1; and
the day of injection was the starting date of the experiment, and the administration was started 2 hours after the modeling, once a day for 7 consecutive days.
After 7 days from the starting date of the experiment, the left ventricle was intubated retrogradely through the right common carotid artery, and the hemodynamic indexes of each group of rats were collected on the RM-6240E polygraph, including the left ventricular pressure (LVP) and the rate of ventricular pressure change (dp/dt).
One week after the starting date of the experiment, the animals were anesthetized and hemodynamically tested (RM-6240E polygraph). The animals were sacrificed after pressure measurement. The heart tissues were immediately dissected and rinsed in frozen normal saline to remove blood. The heart was weighed quickly, and the left and right atria are cut along the atrio-ventricular junction with ophthalmic scissors. The left ventricle was separated, and absorbed water with filter paper, weighed, and put into liquid nitrogen for extraction of protein and mRNA to detect changes in the expression of hypertrophy-related factor genes. After 2 hours, the left ventricle tissue was transferred to a refrigerator at −80° C. for freezing and storage. After completing the above operations, the leg skin and muscles of the rats were cut with surgical scissors to fully expose the tibia, and the length of the tibia was measured. The myocardial hypertrophy index of rats was expressed by a heart-tibia length (HW-Tibia).

PAH rats = test: Monocrotaline-induced pulmonary arterial hypertension (PAH) rats: RVSP, RVMI, pulmonary arterioles; format: in vivo, SD rats; conditions: for RVMI, RV/(LV+S) / RVSP: 3 weeks after MCT
Description: SD rats were randomly divided into 8 groups, 15 rats/group: a normal control group (Vehicle); a PAH model group (MCT); a PAH+potassium salt crystal form B of WYQ mini-dose group (hereafter referring to as a mini-dose group); a PAH+potassium salt crystal form B of WYQ low-dose group (hereafter referring to as a low-dose group); a PAH+potassium salt crystal form B of WYQ medium-dose group (hereafter referring to as a medium-dose group); a PAH+potassium salt crystal form B of WYQ high-dose group (hereafter referring to as a high-dose group); a PAH+Sildenafil control group (hereafter referring to as a Sildenafil group); a PAH+Tadalafil control group (hereafter referring to as a Tadalafil group).
MCT was fully dissolved with 1M dilute HCl, diluted with double-distilled water, and adjusted to pH=7.2 with 3M NaOH, thereby preparing a MCT solution with a final concentration of 20 mg/ml.
The normal control group was injected subperitoneally with normal saline (50 mg/kg), and the rest of the groups were injected subperitoneally with MCT (50 mg/kg) at one time.
Mini-dose group: the potassium salt crystal form B of WYQ was prepared into a 0.4 mg/ml medicinal solution (ready to use) with normal saline, and administered by gavage at the dose of 2 mg·kg^−1d^−1;
Low-dose group: the potassium salt crystal form B of WYQ was prepared into a 1 mg/ml medicinal solution (ready to use) with normal saline, and administered by gavage at the dose of 5 mg·kg^−1d^−1;
Medium-dose group: the potassium salt crystal form B of WYQ was prepared into a 2 mg/ml medicinal solution (ready to use) with normal saline, and administered by gavage at the dose of 10 mg·kg^−1d^−1;
High-dose group: the potassium salt crystal form B of WYQ was prepared into a 4 mg/ml medicinal solution (ready to use) with normal saline, and administered by gavage at the dose of 20 mg·kg^−1d^−1;
Sildenafil group: Sildenafil was prepared into a 5 mg/ml medicinal solution (ready to use) with 0.5% sodium carboxymethyl cellulose, and administered by gavage at the dose of 25 mg·kg^−1d^−1;
Tadalafil group: Tadalafil was prepared into a 2 mg/ml medicinal solution (ready to use) with 0.5% sodium carboxymethyl cellulose, and administered by gavage at the dose of 10 mg·kg^−1d^−1.
The day of injection was the starting date of the experiment, and the administration was started after 7 days of modeling, once a day for 14 consecutive days.
After 3 weeks from the starting date of the experiment, RVSP data were collected on RM-6240E polygraph for each group of rats.
After 3 weeks from the starting date of the experiment, the animals were anesthetized, hemodynamically tested (RM-6240E polygraph), and sacrificed after manometry. The cardiopulmonary tissues were immediately dissected, and the right and left atria and great vessels were cut off along the atrioventricular junction with ophthalmic scissors to separate the right ventricle (RV) and left ventricular wall plus septum (LV+S), which was absorbed water with filter paper and weighed respectively, and RV/(LV+S), i.e., RVMI was calculated.
After 3 weeks from the starting date of the experiment, rats were heparinized with heparin (50 IU/100 g, intraperitoneal injection) for 5 min. The animals were anesthetized by injection of 20% urethane solution (0.5 ml/100 g), and the blood pressure indexes were detected and recorded.
The heart was dissected, the right ventricular wall was separated, and the left ventricle and the septum were separated, which were absorbed water with filter paper and weighed respectively to calculate the right ventricular hypertrophy index.
The lungs were dissected, wherein the right lung was ligated, and the left lung lobe was perfused with a fixative (4% paraformaldehyde) and then fixed in the fixative, dehydrated by ethanol gradient, allowed to become transparent by using xylene, immersed in wax, embedded in paraffin, sectioned (4 μm), stained with hematoxylin-eosin (HE), sealed with neutral gum and then observed under a microscope. […]

[3] = high-dose 20 mg·kg^−1d^−1 gavage once a day for 14 days
[4] = low-, medium- and high-dose groups (5, 10, 20 mg·kg^−1d^−1)
[5] = low-dose 5 mg·kg^−1d^−1 gavage once a day for 14 days
[6] = medium-dose 10 mg·kg^−1d^−1 gavage once a day for 14 days
[7] = mini-dose 2 mg·kg^−1d^−1 gavage once a day for 14 days

**Q.** With CCCCOC(=O)[N-]S(=O)(=O)c1cccc(-c2nc3c(CCC)nn(C)c3c(=O)[nH]2)c1.[K+] [potassium salt crystal form B] as the molecule, how does the “crystal form before and after the DVS test (XRPD)” value ([1]; DVS 0-95% RH, 25° C.) read?
**A.** did not change

**Q.** And the “change in mass (water adsorption amount)” value ([1]; DVS, 25° C./80% RH)?
**A.** 0.6%

**Q.** And the hygroscopicity ([1]; DVS, 25° C./80% RH)?
**A.** slight hygroscopicity

**Q.** What about the “BNP gene expression in heart tissue vs model group” value [2] of the same molecule?
**A.** significantly decreased

**Q.** And the “HW-Tibia ratio vs model group” value [2]?
**A.** significantly reduced

**Q.** What about the “Max dp/dt vs model group” value [2] of the same molecule?
**A.** significantly higher

**Q.** What about the “Min dp/dt vs model group” value [2] of the same molecule?
**A.** significantly higher

**Q.** What about the “expression of ANP gene in left heart tissue vs model group” value [2] of the same molecule?
**A.** significantly decreased

**Q.** And the “expression of ANP protein in left heart tissue vs model group” value [2]?
**A.** significantly decreased

**Q.** And the “left ventricle-tibia length ratio vs model group” value [2]?
**A.** significantly reduced

**Q.** And the “left ventricular pressure (LVP) vs model group” value [2]?
**A.** significantly higher

**Q.** What about the “RVMI, RV/(LV+S)” value (PAH rats; [3]) of the same molecule?
**A.** 34.6±19%

**Q.** What about the RVSP (PAH rats; [3]) of the same molecule?
**A.** 29.8±1.6 mmHg

**Q.** What about the “WT % of pulmonary arterioles vs PAH model group” value (PAH rats; [4]) of the same molecule?
**A.** decreased and improved significantly

**Q.** And the “tunica media thickness of pulmonary arterioles vs PAH model group” value (PAH rats; [4])?
**A.** decreased and improved significantly

**Q.** And the “RVMI, RV/(LV+S)” value (PAH rats; [5])?
**A.** 40.6±2.7%

**Q.** What about the RVSP (PAH rats; [5]) of the same molecule?
**A.** 47.6±1.9 mmHg

**Q.** What about the “RVMI, RV/(LV+S)” value (PAH rats; [6]) of the same molecule?
**A.** 38.7±2.1%

**Q.** And the RVSP (PAH rats; [6])?
**A.** 40.7±1.5 mmHg

**Q.** And the “RVMI, RV/(LV+S)” value (PAH rats; [7])?
**A.** 42.8±2.1%

**Q.** And the RVSP (PAH rats; [7])?
**A.** 56.2±0.5 mmHg
